In ChEMBL document CHEMBL1132339, “Lipophilic 4-isoxazolyl-1,4-dihydropyridines: synthesis and structure-activity relationships” (J Med Chem, 1999):
pKi: −log10 of the molar value.

molecular target: Voltage-dependent L-type calcium channel subunit alpha-1C (Rattus norvegicus, UniProt P22002); experiment: Displacement of [3H](+)-PN200-110 binding from calcium channels of rat cardiac membranes.; assay type: cell membranes, Membrane
Sequence (P22002 whole entry): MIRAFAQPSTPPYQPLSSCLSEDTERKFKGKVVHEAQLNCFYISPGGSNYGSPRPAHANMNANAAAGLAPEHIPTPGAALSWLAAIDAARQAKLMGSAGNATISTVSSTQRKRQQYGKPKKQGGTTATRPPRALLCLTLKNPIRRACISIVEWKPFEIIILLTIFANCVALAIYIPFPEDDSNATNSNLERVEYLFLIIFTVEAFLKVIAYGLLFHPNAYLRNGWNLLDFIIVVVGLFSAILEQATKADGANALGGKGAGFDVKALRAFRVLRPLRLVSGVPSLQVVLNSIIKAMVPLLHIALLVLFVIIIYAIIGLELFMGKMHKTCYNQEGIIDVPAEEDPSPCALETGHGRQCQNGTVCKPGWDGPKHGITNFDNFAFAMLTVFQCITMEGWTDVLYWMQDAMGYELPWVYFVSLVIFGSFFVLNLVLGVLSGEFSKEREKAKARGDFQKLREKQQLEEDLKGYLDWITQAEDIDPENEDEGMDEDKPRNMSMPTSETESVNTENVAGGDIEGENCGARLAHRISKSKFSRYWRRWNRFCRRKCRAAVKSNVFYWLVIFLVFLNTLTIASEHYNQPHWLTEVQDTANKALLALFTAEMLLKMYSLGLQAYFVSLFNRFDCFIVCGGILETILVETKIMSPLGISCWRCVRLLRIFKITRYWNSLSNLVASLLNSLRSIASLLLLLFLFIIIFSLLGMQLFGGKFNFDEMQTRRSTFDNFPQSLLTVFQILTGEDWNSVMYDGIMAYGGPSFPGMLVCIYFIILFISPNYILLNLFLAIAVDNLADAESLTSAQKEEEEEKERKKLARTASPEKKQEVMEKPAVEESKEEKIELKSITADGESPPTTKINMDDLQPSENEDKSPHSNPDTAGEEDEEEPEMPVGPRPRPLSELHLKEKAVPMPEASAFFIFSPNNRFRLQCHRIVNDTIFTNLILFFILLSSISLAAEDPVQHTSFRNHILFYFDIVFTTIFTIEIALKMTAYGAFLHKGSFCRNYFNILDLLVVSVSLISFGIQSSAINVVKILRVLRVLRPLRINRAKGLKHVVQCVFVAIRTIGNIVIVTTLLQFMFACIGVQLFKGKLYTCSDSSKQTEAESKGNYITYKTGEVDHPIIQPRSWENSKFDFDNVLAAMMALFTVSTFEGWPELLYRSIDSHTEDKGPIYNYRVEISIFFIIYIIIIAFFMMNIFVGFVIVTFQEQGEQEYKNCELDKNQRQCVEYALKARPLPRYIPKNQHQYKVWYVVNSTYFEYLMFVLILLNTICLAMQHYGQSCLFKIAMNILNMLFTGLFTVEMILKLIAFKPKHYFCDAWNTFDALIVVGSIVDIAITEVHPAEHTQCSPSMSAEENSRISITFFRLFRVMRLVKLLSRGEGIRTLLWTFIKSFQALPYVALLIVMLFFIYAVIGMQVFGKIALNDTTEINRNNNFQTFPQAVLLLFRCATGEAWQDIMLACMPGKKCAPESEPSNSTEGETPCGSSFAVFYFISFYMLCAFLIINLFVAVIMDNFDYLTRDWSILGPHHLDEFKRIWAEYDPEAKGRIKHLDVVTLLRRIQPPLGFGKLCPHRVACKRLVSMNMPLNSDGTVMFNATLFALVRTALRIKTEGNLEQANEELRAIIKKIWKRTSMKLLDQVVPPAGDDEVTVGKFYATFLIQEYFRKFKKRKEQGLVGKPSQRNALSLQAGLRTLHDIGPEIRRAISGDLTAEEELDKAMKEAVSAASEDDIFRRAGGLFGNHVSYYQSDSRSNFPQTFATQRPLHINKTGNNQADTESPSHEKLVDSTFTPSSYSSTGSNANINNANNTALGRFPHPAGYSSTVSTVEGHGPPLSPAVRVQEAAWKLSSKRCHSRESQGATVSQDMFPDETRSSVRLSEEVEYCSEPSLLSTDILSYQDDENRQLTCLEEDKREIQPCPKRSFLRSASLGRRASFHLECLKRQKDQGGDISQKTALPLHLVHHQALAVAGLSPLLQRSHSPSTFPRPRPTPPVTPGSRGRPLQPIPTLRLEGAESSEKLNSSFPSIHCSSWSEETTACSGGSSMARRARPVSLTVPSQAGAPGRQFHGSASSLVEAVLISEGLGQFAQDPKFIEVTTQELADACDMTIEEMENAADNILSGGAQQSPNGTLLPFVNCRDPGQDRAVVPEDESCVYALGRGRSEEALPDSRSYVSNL

Row | Compound | pKi
1 | CCOC(=O)C1=C(C)N=C(C)/C(=C(/O)OCC)C1c1c(C)noc1CCc1cccc2ccccc12 (stereo not drawn) | 8.67
2 | CCOC(=O)C1=C(C)N=C(C)/C(=C(/O)OCC)C1c1c(C)noc1CCc1ccc2ccccc2c1 (stereo not drawn) | 7.97
3 | CCOC(=O)C1=C(C)N=C(C)/C(=C(/O)OCC)C1c1c(C)noc1CCc1ccccc1-c1ccccc1 (stereo not drawn) | 7.34
